Laboratory results published in PubChem BioAssay (NCI).
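GI50 = concentration required for 50% inhibition of growth. TGI marks complete inhibition of growth.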

How the values were obtained:
Test in all cases: DTP human tumour cell line panel, 384-well format
SF-539 CNS = system: SF-539 CNS
NCI-H522 lung = system: NCI-H522 lung
BT-549 breast = system: BT-549 breast
LOX IMVI melanoma = system: LOX IMVI melanoma
OVCAR-4 ovarian = system: OVCAR-4 ovarian
MOLT-4 leukemia = system: MOLT-4 leukemia
SNB-75 CNS = system: SNB-75 CNS
HCT-15 colon = system: HCT-15 colon
PC-3 prostate = system: PC-3 prostate
UO-31 renal = system: UO-31 renal
OVCAR-5 ovarian = system: OVCAR-5 ovarian
RPMI-8226 leukemia = system: RPMI-8226 leukemia
MDA-MB-435 melanoma = system: MDA-MB-435 melanoma
HCC-2998 colon = system: HCC-2998 colon
SR leukemia = system: SR leukemia
NCI/ADR-RES ovarian = system: NCI/ADR-RES ovarian
CCRF-CEM leukemia = system: CCRF-CEM leukemia
KM12 colon = system: KM12 colon
SK-MEL-28 melanoma = system: SK-MEL-28 melanoma
HL-60(TB) leukemia = system: HL-60(TB) leukemia
U251 glioblastoma = system: U251 glioblastoma
ACHN renal = system: ACHN renal
MCF7 breast = system: MCF7 breast
SNB-19 CNS = system: SNB-19 CNS
NCI-H322M lung = system: NCI-H322M lung
SF-268 CNS = system: SF-268 CNS
SK-MEL-2 melanoma = system: SK-MEL-2 melanoma
HT29 colon = system: HT29 colon
A549 NSCLC = system: A549 NSCLC
IGROV1 ovarian = system: IGROV1 ovarian
A498 renal = system: A498 renal
T-47D breast = system: T-47D breast
SK-OV-3 ovarian = system: SK-OV-3 ovarian
EKVX NSCLC = system: EKVX NSCLC
HOP-62 NSCLC = system: HOP-62 NSCLC
SN12C renal = system: SN12C renal
RXF 393 renal = system: RXF 393 renal
OVCAR-3 ovarian = system: OVCAR-3 ovarian
M14 melanoma = system: M14 melanoma
OVCAR-8 ovarian = system: OVCAR-8 ovarian
UACC-62 melanoma = system: UACC-62 melanoma
MDA-MB-468 breast = system: MDA-MB-468 breast
DU-145 prostate = system: DU-145 prostate
NCI-H460 NSCLC = system: NCI-H460 NSCLC
MDA-MB-231 breast = system: MDA-MB-231 breast
786-0 renal = system: 786-0 renal
SK-MEL-5 melanoma = system: SK-MEL-5 melanoma

C=CC(=O)Nc1cc(C)ccc1Nc1nc(Nc2cc(OC)ncc2C)ncc1C(F)(F)F
GI50 (SF-539 CNS): 362 nM
TGI (SF-539 CNS): 1550 nM
GI50 (NCI-H522 lung): 310 nM
TGI (NCI-H522 lung): 1480 nM
GI50 (BT-549 breast): 300 nM
TGI (BT-549 breast): 1020 nM
GI50 (LOX IMVI melanoma): 169 nM
TGI (LOX IMVI melanoma): 423 nM
GI50 (OVCAR-4 ovarian): 394 nM
TGI (OVCAR-4 ovarian): 7500 nM
GI50 (MOLT-4 leukemia): 879 nM
TGI (MOLT-4 leukemia): 2150 nM
GI50 (SNB-75 CNS): 336 nM
TGI (SNB-75 CNS): 1290 nM
GI50 (HCT-15 colon): 857 nM
TGI (HCT-15 colon): 9300 nM
GI50 (PC-3 prostate): 1970 nM
TGI (PC-3 prostate): 99700 nM
GI50 (UO-31 renal): 394 nM
TGI (UO-31 renal): 2880 nM
GI50 (OVCAR-5 ovarian): 279 nM
TGI (OVCAR-5 ovarian): 1500 nM
GI50 (RPMI-8226 leukemia): 232 nM
TGI (RPMI-8226 leukemia): 1170 nM
GI50 (MDA-MB-435 melanoma): 253 nM
TGI (MDA-MB-435 melanoma): 1510 nM
GI50 (HCC-2998 colon): 123 nM
TGI (HCC-2998 colon): 376 nM
GI50 (SR leukemia): 1790 nM
TGI (SR leukemia): 3180 nM
GI50 (NCI/ADR-RES ovarian): 1030 nM
TGI (NCI/ADR-RES ovarian): 2590 nM
GI50 (CCRF-CEM leukemia): 1710 nM
TGI (CCRF-CEM leukemia): 3400 nM
GI50 (KM12 colon): 444 nM
TGI (KM12 colon): > 100000 nM
GI50 (SK-MEL-28 melanoma): 86.6 nM
TGI (SK-MEL-28 melanoma): 387 nM
GI50 (HL-60(TB) leukemia): 136 nM
TGI (HL-60(TB) leukemia): 1070 nM
GI50 (U251 glioblastoma): 951 nM
TGI (U251 glioblastoma): 2560 nM
GI50 (ACHN renal): 374 nM
TGI (ACHN renal): 1820 nM
GI50 (MCF7 breast): 690 nM
TGI (MCF7 breast): 4130 nM
GI50 (SNB-19 CNS): 786 nM
TGI (SNB-19 CNS): 3430 nM
GI50 (NCI-H322M lung): 570 nM
TGI (NCI-H322M lung): 3890 nM
GI50 (SF-268 CNS): 1500 nM
TGI (SF-268 CNS): 5940 nM
GI50 (SK-MEL-2 melanoma): 113 nM
TGI (SK-MEL-2 melanoma): 271 nM
GI50 (HT29 colon): 340 nM
TGI (HT29 colon): 1520 nM
GI50 (A549 NSCLC): 569 nM
TGI (A549 NSCLC): 2050 nM
GI50 (IGROV1 ovarian): 233 nM
TGI (IGROV1 ovarian): 906 nM
GI50 (A498 renal): 479 nM
TGI (A498 renal): 1900 nM
GI50 (T-47D breast): 813 nM
TGI (T-47D breast): 5380 nM
GI50 (SK-OV-3 ovarian): 621 nM
TGI (SK-OV-3 ovarian): 4210 nM
GI50 (EKVX NSCLC): 300 nM
TGI (EKVX NSCLC): 1620 nM
GI50 (HOP-62 NSCLC): 725 nM
TGI (HOP-62 NSCLC): 2620 nM
GI50 (SN12C renal): 321 nM
TGI (SN12C renal): 2180 nM
GI50 (RXF 393 renal): 215 nM
TGI (RXF 393 renal): 766 nM
GI50 (OVCAR-3 ovarian): 447 nM
TGI (OVCAR-3 ovarian): 3030 nM
GI50 (M14 melanoma): 35.5 nM
TGI (M14 melanoma): 194 nM
GI50 (OVCAR-8 ovarian): 1120 nM
TGI (OVCAR-8 ovarian): 4190 nM
GI50 (UACC-62 melanoma): 59.9 nM
TGI (UACC-62 melanoma): 381 nM
GI50 (MDA-MB-468 breast): 1150 nM
TGI (MDA-MB-468 breast): 2570 nM
GI50 (DU-145 prostate): 865 nM
TGI (DU-145 prostate): 3600 nM
GI50 (NCI-H460 NSCLC): 698 nM
TGI (NCI-H460 NSCLC): 2720 nM
GI50 (MDA-MB-231 breast): 283 nM
TGI (MDA-MB-231 breast): 1100 nM
GI50 (786-0 renal): 853 nM
TGI (786-0 renal): > 100000 nM
GI50 (SK-MEL-5 melanoma): 147 nM
TGI (SK-MEL-5 melanoma): 1970 nM
